According to US20230416329A1, “A PEPTIDE WITH DISULFIDE BONDS AND INHIBITORY ACTIVITY AGAINST SERINE PROTEASES, DERIVED HYBRID PEPTIDES THEREOF, AND USES THEREOF” (INSTITUTE OF MATERIA MEDICA , CHINESE ACADEMY OF MEDICAL …, priority 2020, published 2023):
Where two headings read alike, the source gives them in different places. Bridge positions count the residues as written; N and C are the ends. Square brackets hold non-standard residues; d marks the D form. Peptide text beside a SMILES is read from it. Nle = CCCC[C@H](N)C(=O)O

Target: T1, bovine trypsin (Bos taurus, UniProt P00760)
T1 sequence (P00760 24-246): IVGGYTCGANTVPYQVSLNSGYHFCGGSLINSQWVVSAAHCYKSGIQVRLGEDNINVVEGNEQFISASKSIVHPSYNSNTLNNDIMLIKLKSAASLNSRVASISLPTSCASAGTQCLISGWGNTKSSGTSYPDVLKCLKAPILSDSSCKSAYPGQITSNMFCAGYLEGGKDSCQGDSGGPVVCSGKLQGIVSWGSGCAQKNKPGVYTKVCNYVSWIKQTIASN
Assay: Trypsin inhibitory activity of peptides (BApNA hydrolysis, OD405; IC50, Ki, residual activity)
Format: biochemical
Conditions: for Ki: Ki=IC50/(1+S/Km), Km 0.33 mM, read-out: Ki; for IC50: trypsin 50 nM, BApNA 1.22 mM, read-out: IC50
Outline: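 Trypsin (50 nM final) preincubated with peptides at 37 °C in 50 mM Tris-HCl pH 7.8, 20 mM CaCl2; BApNA added (1.22 mM final), 260 min at 37 °C, then OD405 read. Residual activity from enzyme-only and substrate-only controls; IC50 fitted and converted to Ki via Ki=IC50/(1+S/Km), Km measured separately for BApNA.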

Ki [µM] | inhibitory activity against trypsin (in words) (listed as SEQ ID NO: 47) | Residual trypsin activity (peptide 0.000098 μM) [%] | Residual trypsin activity (peptide 0.00098 μM) [%] | Residual trypsin activity (peptide 0.0098 μM) [%] | Residual trypsin activity (peptide 0.0488 μM) [%] | Residual trypsin activity (peptide 0.0780 μM) [%] | Residual trypsin activity (peptide 0.098 μM) [%] | Residual trypsin activity (peptide 0.98 μM) [%] | Residual trypsin activity (peptide 9.76 μM) [%] | Residual trypsin activity (peptide 97.56 μM) [%] | IC50 [µM] | inhibitory activity against trypsin (in words) (listed as SEQ ID NO: 50) | Structure (SMILES) | inhibitory activity against trypsin (in words)
0.01 | excellent trypsin inhibitory activities | 103.0 ± 5.2 | 105.1 ± 3.6 | 107.9 ± 5.8 | 57.4 ± 1.1 | 39.0 ± 3.8 | 5.6 ± 0.7 | 0.2 ± 0.0 | 0.0 ± 0.1 | 0.1 ± 0.0 | 0.05 | – | CC[C@H](C)[C@@H]1NC(=O)[C@@H]2CCCN2C(=O)[C@@H]2CCCN2C(=O)[C@H]([C@@H](C)CC)NC(=O)[C@H](CO)NC(=O)[C@H](CCCCN)NC(=O)[C@H]([C@@H](C)O)NC(=O)[C@H](CO)NC(=O)[C@H](CCCNC(=N)N)NC(=O)CNC(=O)[C@@H](N)CSSC[C@@H](C(=O)N[C@@H](Cc2ccccc2)C(=O)O)NC1=O [BT47] (H-CGRSTKSIPPICF-OH; disulfide 1-12; C-terminus assumed) | good inhibitory activities against trypsin
0.04 | – | – | – | – | – | – | – | – | – | – | – | – | CC[C@H](C)[C@@H]1NC(=O)[C@@H]2CCCN2C(=O)[C@@H]2CCCN2C(=O)[C@H]([C@@H](C)CC)NC(=O)[C@H](CO)NC(=O)[C@H](CCCCN)NC(=O)[C@H]([C@@H](C)O)NC(=O)[C@H](CC(C)C)NC(=O)[C@H](CCCNC(=N)N)NC(=O)CNC(=O)[C@@H](N)CSSC[C@@H](C(=O)N[C@@H](Cc2ccccc2)C(=O)O)NC1=O [BT48] (H-CGRLTKSIPPICF-OH; disulfide 1-12; N-terminus and C-terminus assumed) | –
0.11 | – | – | – | – | – | – | – | – | – | – | – | – | CC[C@H](C)[C@@H]1NC(=O)[C@H](CCCNC(=N)N)NC(=O)CNC(=O)[C@@H](N)CSSC[C@@H](C(=O)N[C@@H](Cc2ccccc2)C(=O)O)NC(=O)[C@H]([C@@H](C)CC)NC(=O)[C@@H]2CCCN2C(=O)[C@@H]2CCCN2C(=O)[C@H]([C@@H](C)CC)NC(=O)[C@H](CO)NC(=O)[C@H](CCCCN)NC(=O)[C@H]([C@@H](C)O)NC1=O [BT49] (H-CGRITKSIPPICF-OH; disulfide 1-12; C-terminus assumed) | excellent trypsin inhibitory activities
0.01 | – | 106.1 ± 2.6 | 108.5 ± 1.0 | 105.0 ± 3.9 | 73.5 ± 1.6 | 48.9 ± 1.8 | 22.6 ± 5.7 | 0.1 ± 0.0 | 0.0 ± 0.1 | 0.0 ± 0.1 | 0.07 | excellent trypsin inhibitory activities | CCCC[C@@H]1NC(=O)[C@H](CCCNC(=N)N)NC(=O)CNC(=O)[C@@H](N)CSSC[C@@H](C(=O)N[C@@H](Cc2ccccc2)C(=O)O)NC(=O)[C@H]([C@@H](C)CC)NC(=O)[C@@H]2CCCN2C(=O)[C@@H]2CCCN2C(=O)[C@H]([C@@H](C)CC)NC(=O)[C@H](CO)NC(=O)[C@H](CCCCN)NC(=O)[C@H]([C@@H](C)O)NC1=O [BT50] (H-CGR[Nle]TKSIPPICF-OH; disulfide 1-12; C-terminus assumed) | good inhibitory activities against trypsin
0.09 | – | – | – | – | – | – | – | – | – | – | – | – | CC[C@H](C)[C@@H]1NC(=O)[C@@H]2CCCN2C(=O)[C@@H]2CCCN2C(=O)[C@H]([C@@H](C)CC)NC(=O)[C@H](CO)NC(=O)[C@H](CCCCN)NC(=O)[C@H]([C@@H](C)O)NC(=O)[C@H](C(C)C)NC(=O)[C@H](CCCNC(=N)N)NC(=O)CNC(=O)[C@@H](N)CSSC[C@@H](C(=O)N[C@@H](Cc2ccccc2)C(=O)O)NC1=O [BT51] (H-CGRVTKSIPPICF-OH; disulfide 1-12) | excellent trypsin inhibitory activities
